# Assay results taken from patent US11046700B2, “Substituted imidazo[1,2-a]pyrazines, pyrazolo[1,5-c]pyrimidines, pyrazolo[1,5-a]pyridines, and purines for the treatment of schistosomiasis” (Merck Patent GmbH, priority 2017, dated 2021).
# Assays:
# [1] = system: S. mansoni juvenile worms; assay: Mouse infection model, juvenile worms, oral treatment day 25 post infection, worm recovery; format: in vivo, Schistosoma mansoni; settings: mice
# Description: Methods for the subcutaneous infection of mice and subsequent worm recovery were as described in Mansour et al (2016) except that infection was with 150 cercariae and the perfusion medium was citrate saline (0.9% sodium chloride, 1.5% tri-sodium citrate). Perfusion was carried out 8 days (adult infections) or 15 days (juvenile infections) after treatment. Perfuseate was collected into 30 mL universal tubes. RBC (Red Blood Cells) were removed by allowing the perfuseate to settle for 10 min, removal of most of the supernatant and washing once as above with 10 mL perfusion medium. A drop of dilute aqueous saponin solution was added to lyse any remaining RBC and the worm suspension poured into a grid-marked small petri dish. The tube was rinsed out into the petri dish and examined for any remaining worms. Worms were counted using a dissecting microscope. The mouse livers removed after perfusion were squashed between two thick glass plates and examined visually and any remaining worms added to those counted as above.
# For testing efficacy against the juvenile worms, treatment was on day 25 post infection and for testing against the adult worms on day 42 post infection. Drugs were suspended in 7% Tween-80/3% Ethanol/double distilled water and drug dispersal was facilitated by vortexing and using a sonicating water bath (Formulation F1). Alternatively, drugs were suspended in 10% DMSO, 90% double distilled water containing 50 mM Na2HPO4 with 0.5% Tween-80 by first dissolving or suspending the drug in DMSO then adding the DMSO solution/suspension to the aqueous solution (Formulation F2). In a further set of conditions, drugs were first dissolved in DMSO, then diluted with corn oil to give a 5% DMSO+drug solution/suspension (Formulation F3)
# The drug solution/suspensions were given by oral gavage at the rate of 10 ml/kg. Positive controls (artemether for juvenile worms and praziquantel for adult worms) were used in each experiment.
# HepG2 cell line = assay: Cytotoxicity against human HepG2 cell lines; format: cell-based
# S. mansoni adult worms = assay: In vitro assay, S. mansoni adult worms; format: cell-based; settings: Schistosoma mansoni; S. mansoni adult worms, in vitro; read-out: (a) Adult
# Description: (§1) The routine biological assays using adult or juvenile worms and cytotoxicity assays using MRC-5 cells have been disclosed previously in Mansour, N. R., et al. (2016). “High Throughput Screening Identifies Novel Lead Compounds with Activity against Larval, Juvenile and Schistosoma mansoni PLoS Negl Trap Dis 10(4): e0004659. Cytotoxicity assays using the HepG2 cell line were carried out as described in Molecular Diversity (2015) 19, 251-261.
# (a) S. mansoni adult worms
# [2] = system: S. mansoni juvenile worms; assay: In vitro assay, S. mansoni juvenile worms; format: cell-based; settings: Schistosoma mansoni; S. mansoni juvenile worms, in vitro; read-out: (b) Juvenile
# Description: as §1
# (b) S. mansoni juvenile worms
# [3] = oral 400 mg/kg, Formulation F1, negative control 33.0 ± 7.2
# [4] = oral 400 mg/kg, Formulation F1, negative control 33.2 ± 9.09
# [5] = oral 25 mg/kg, Formulation F1, negative control 33.2 ± 9.09
# [6] = oral 25 mg/kg, Formulation F2, negative control 33.2 ± 9.09
# [7] = oral 50 mg/kg, Formulation F1, negative control 33.0 ± 7.2
# [8] = oral 5 mg/kg, Formulation F2, negative control 33.2 ± 9.09
# [9] = oral 6.25 mg/kg, Formulation F3, negative control 32.6 ± 10.6
# [10] = oral 50 mg/kg, Formulation F3, negative control 32.8 ± 14
Compound,IC50 (S. mansoni adult worms),IC50 [2],(e) Cytotox HepG2 (HepG2 cell line),also measured
"CO[C@H]1O[C@@H]2O[C@@]3(C)CC[C@H]4[C@H](C)CC[C@@H]([C@H]1C)[C@@]24OO3 [Artemether, artemether, reference compound]",–,–,–,"Mean worm recovery [1, 3]: 8.2 ± 4.1; Percent worm reduction [1, 3]: 75%; Mean worm recovery [1, 4]: 8.6 ± 4.16; Percent worm reduction [1, 4]: 74%"
"CC(C)c1nc2cnc(-c3ccc(F)c(C(F)(F)F)c3)cn2c1-c1ccc2[nH]ncc2c1F [Example 2, 4-fluoro-5-{6-[4-fluoro-3-(trifluoromethyl)phenyl]-2-(propan-2-yl)imidazo[1,2-a]pyrazin-3-yl}-1H-indazole]",47 nM,19 nM,10.4 µM,"Mean worm recovery [1, 5]: 7.2 ± 3.9; Percent worm reduction [1, 5]: 78%; Mean worm recovery [1, 6]: 4.4 ± 3.91; Percent worm reduction [1, 6]: 87%; Mean worm recovery [1, 7]: 4.0 ± 4.1; Percent worm reduction [1, 7]: 88%"
"Fc1c(-c2c(C(F)(F)F)nc3cnc(-c4cccc(C(F)(F)C(F)(F)F)c4)cn23)ccc2[nH]ncc12 [Example 29, 4-fluoro-5-{2-trifluoromethyl-6-[3-(pentafluoroethyl)phenyl]imidazo[1,2-a]pyrazin-3-yl}-1H-indazole]",30 nM,28 nM,8.9 µM,"Mean worm recovery [1, 8]: 14.8 ± 6.61; Percent worm reduction [1, 8]: 55%; Mean worm recovery [1, 9]: 2.0 ± 2.6; Percent worm reduction [1, 9]: 94%; Mean worm recovery [1, 6]: 4 ± 1.41; Percent worm reduction [1, 6]: 88%"
Fc1ccc(-c2cn3c(-c4ccc5[nH]ncc5c4F)c(C4CC4)nc3cn2)cc1C(F)(F)F [Example 32],63 nM,–,16.1 µM,"Mean worm recovery [1, 7]: 29.0 ± 7.9; Percent worm reduction [1, 7]: 12%"
"Oc1cc(F)c(-c2c(C3CC3)nc3cnc(-c4ccc(F)c(C(F)(F)F)c4)cn23)c(F)c1 [Example 34, 4-(2-cyclopropyl-6-(4-fluoro-3-(trifluoromethyl)phenyl)imidazo[1,2-a]pyrazin-3-yl)-3,5-difluorophenol]",69 nM,88 nM,8.9 µM,"Mean worm recovery [1, 7]: 24.8 ± 7.4; Percent worm reduction [1, 7]: 25%"
"CCc1nc2cnc(-c3ccc(F)c(C(F)(F)C(F)(F)F)c3)cn2c1-c1c(F)cc(O)cc1F [Example 45, 4-{2-ethyl-6-[4-fluoro-3-(1,1,2,2,2-pentafluoroethyl)phenyl]imidazo[1,2-a]pyrazin-3-yl}-3,5-difluorophenol]",–,21 nM,–,"Mean worm recovery [1, 5]: 31.8 ± 5.76; Percent worm reduction [1, 5]: 4%"
"Fc1ccc(-c2cn3c(-c4ccc5[nH]ncc5c4F)c(C(F)(F)F)nc3cn2)cc1C1CCC1 [Example 82, 6-(3-Cyclobutyl-4-fluoro-phenyl)-3-(4-fluoro-1H-indazol-5-yl)-2-trifluoromethyl-imidazo[1,2-a]pyrazine]",45 nM,59 nM,6.1 µM,–
"CC(C)c1cc(-c2cn3c(-c4ccc5[nH]ncc5c4F)c(C(F)(F)F)nc3cn2)ccn1 [Example 87, 3-(4-Fluoro-1H-indazol-5-yl)-6-(2-isopropyl-pyridin-4-yl)-2-trifluoromethyl-imidazo[1,2-a]pyrazine]",37 nM,91 nM,9.5 µM,–
"Fc1c(-c2c(C(F)(F)F)nc3cnc(-c4ccnc(C(F)(F)F)c4)cn23)ccc2[nH]ncc12 [Example 88, 3-(4-Fluoro-1H-indazol-5-yl)-2-trifluoromethyl-6-(2-trifluoromethyl-pyridin-4-yl)-imidazo[1,2-a]pyrazine]",116 nM,140 nM,7.0 µM,–
"CC(C)c1nc2cnc(-c3ccc(F)c(C(F)(F)F)c3)nc2n1-c1c(F)cc(O)cc1F [Example 89, 3,5-Difluoro-4-[2-(4-fluoro-3-trifluoromethyl-phenyl)-8-isopropyl-purin-9-yl]-phenol]",71 nM,128 nM,4.8 µM,–
"CC(C)c1nc2cnc(-c3cccc(C(F)(F)F)c3)nc2n1-c1ccc(O)cc1F [Example 90, 3-fluoro-4-[8-(propan-2-yl)-2-[3-(trifluoromethyl)phenyl]-9H-purin-9-yl]phenol]",77 nM,468 nM,9.3 µM,–

# Continued, in another order:
IC50 (S. mansoni adult worms),IC50 [2],Compound,(e) Cytotox HepG2 (HepG2 cell line),also measured
2 nM,2 nM,"CC(C)c1cc(-c2cn3c(-c4ccc5[nH]ncc5c4F)c(C(F)(F)F)nc3cn2)ccc1F [Example 67, 3-(4-Fluoro-1H-indazol-5-yl)-6-(4-fluoro-3-isopropyl-phenyl)-2-trifluoromethyl-imidazo[1,2-a]pyrazine]",17.0 µM,"Mean worm recovery [1, 10]: 0; Percent worm reduction [1, 10]: 100%"
7 nM,4 nM,"CC(C)c1cc(-c2cn3c(-c4ccc5[nH]ncc5c4F)c(C4CCC4)nc3cn2)ccc1F [Example 77, 2-Cyclobutyl-3-(4-fluoro-1H-indazol-5-yl)-6-(4-fluoro-3-isopropyl-phenyl)-imidazo[1,2-a]pyrazine]",10.8 µM,–
5 nM,5 nM,"CC(C)c1cc(-c2cn3c(-c4ccc5[nH]ncc5c4F)c(C4CC4)nc3cn2)ccc1F [Example 79, 2-Cyclopropyl-3-(4-fluoro-1H-indazol-5-yl)-6-(4-fluoro-3-isopropyl-phenyl)-imidazo[1,2-a]pyrazine]",15.7 µM,–
11 nM,12 nM,"CC(C)Oc1cc(-c2cn3c(-c4ccc5[nH]ncc5c4F)c(C(F)(F)F)nc3cn2)ccc1F [Example 81, 3-(4-Fluoro-1H-indazol-5-yl)-6-(4-fluoro-3-isopropoxy-phenyl)-2-trifluoromethyl-imidazo[1,2-a]pyrazine]",9.2 µM,–
< 12 nM,15 nM,"CC(C)c1cc(-c2cn3c(-c4ccc5[nH]ncc5c4Cl)c(C(F)(F)F)nc3cn2)ccc1F [Example 83, 3-(4-Chloro-1H-indazol-5-yl)-6-(4-fluoro-3-isopropyl-phenyl)-2-trifluoromethyl-imidazo[1,2-a]pyrazine]",6.6 µM,–
12 nM,19 nM,"Fc1ccc(-c2cn3c(-c4ccc5[nH]ncc5c4F)c(C(F)(F)F)nc3cn2)cc1C1CC1 [Example 84, 6-(3-Cyclopropyl-4-fluoro-phenyl)-3-(4-fluoro-1H-indazol-5-yl)-2-trifluoromethyl-imidazo[1,2-a]pyrazine]",10.5 µM,–
17 nM,26 nM,"CC(C)Oc1cccc(-c2cn3c(-c4ccc5[nH]ncc5c4F)c(C(F)(F)F)nc3cn2)c1 [Example 86, 3-(4-Fluoro-1H-indazol-5-yl)-6-(3-isopropoxy-phenyl)-2-trifluoromethyl-imidazo[1,2-a]pyrazine]",13.2 µM,–
